Values quoted from earlier work in patent US20220233487A1, “PREPARATION FOR USE IN WEIGHT MANAGEMENT COMPRISING OMEGA-3 FATTY ACID SALTS AND BASIC AMINO ACIDS” (Evonik Operations GmbH, priority 2019, published 2022).

N=C(N)NCCC[C@H](N)C(=O)O [L-arginine]
pKa-values: pKCOOH: pKCOOH: 2.0
